Assay results from paper PMC4768645, “Electronic Olfactory Sensor Based on A. mellifera Odorant‐Binding Protein 14 on a Reduced Graphene Oxide Field‐Effect Transistor” (Angewandte Chemie (International Ed. in English), 2015).
Read-outs that look alike come from different tables or passages of the source. Values belong to the compound of their own block, whether it stands above or below them.

Target: T1, odorant-binding protein 14 (OBP14) (Apis mellifera, UniProt A0A8U0WQC3)
T1 construct: recombinant OBP14, cloning, expression and purification in supplement; immobilised via PBSE linker on reduced graphene oxide FET gate
T1 sequence (A0A8U0WQC3 17-135): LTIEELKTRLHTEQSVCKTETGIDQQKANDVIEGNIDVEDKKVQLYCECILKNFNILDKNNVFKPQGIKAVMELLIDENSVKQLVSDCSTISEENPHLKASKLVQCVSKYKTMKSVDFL
Assay: rGO-FET biosensor, real-time source-drain current, global Langmuir analysis
Source text: rGO-FET biosensor, real-time source-drain current, global Langmuir analysis on odorant-binding protein 14 (OBP14)

Kd (read-out: Methyl vanillate): 20 µM
Structure (SMILES): COC(=O)c1ccc(O)c(OC)c1 [Methyl vanillate]

Kd (read-out: Homovanillic acid): 4 µM
Structure (SMILES): COc1cc(CC(=O)O)ccc1O [Homovanillic acid]

Kd (read-out: Geraniol): 3300 µM
Structure (SMILES): CC(C)=CCC/C(C)=C/CO [Geraniol]

Kd (read-out: Eugenol): 40 µM
Structure (SMILES): C=CCc1ccc(O)c(OC)c1 [Eugenol]

Kd (read-out: Citral): 800 µM
Structure (SMILES): CC(C)=CCCC(C)=CC=O [Citral]

Kd (read-out: Methyl eugenol): 1400 µM
Structure (SMILES): C=CCc1ccc(OC)c(OC)c1 [Methyl eugenol]
